Experiments:
D(3) dopamine receptor = D(3) dopamine receptor (Rattus norvegicus, UniProt P19020)
Description: Displacement of [125I]-7-OH-PIPAT from rat brain dopamine D3 receptor after 45 mins by microplate scintillation counting analysis

[1] = target: Voltage-gated inwardly rectifying potassium channel KCNH2 (Homo sapiens, UniProt Q12809); experiment: Displacement of [3H]-dofetilide from human ERG potassium channel by scintillation proximity assay
[2] = target: T1, Muscarinic acetylcholine receptor M1 (Homo sapiens, UniProt P11229); experiment: Antagonist activity at muscarinic M1 receptor (unknown origin)
T1 sequence (P11229 whole entry): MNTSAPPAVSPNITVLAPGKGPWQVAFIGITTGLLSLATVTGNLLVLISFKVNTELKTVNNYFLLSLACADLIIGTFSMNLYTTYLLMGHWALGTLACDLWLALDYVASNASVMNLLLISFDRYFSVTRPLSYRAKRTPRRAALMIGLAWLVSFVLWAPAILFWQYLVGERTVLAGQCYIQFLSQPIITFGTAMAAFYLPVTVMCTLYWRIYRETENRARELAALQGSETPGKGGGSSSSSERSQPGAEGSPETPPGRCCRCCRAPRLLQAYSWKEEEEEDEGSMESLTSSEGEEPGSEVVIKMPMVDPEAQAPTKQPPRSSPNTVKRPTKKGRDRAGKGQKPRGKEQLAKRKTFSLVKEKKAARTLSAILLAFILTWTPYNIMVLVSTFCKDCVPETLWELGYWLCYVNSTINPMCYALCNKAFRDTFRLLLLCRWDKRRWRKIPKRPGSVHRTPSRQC

Cytochrome P450 1A2 = target: T2, Cytochrome P450 1A2 (Homo sapiens, UniProt P05177); experiment: Inhibition of human CYP1A2 expressed in bactosome; type: ADME
T2 sequence (P05177 whole entry): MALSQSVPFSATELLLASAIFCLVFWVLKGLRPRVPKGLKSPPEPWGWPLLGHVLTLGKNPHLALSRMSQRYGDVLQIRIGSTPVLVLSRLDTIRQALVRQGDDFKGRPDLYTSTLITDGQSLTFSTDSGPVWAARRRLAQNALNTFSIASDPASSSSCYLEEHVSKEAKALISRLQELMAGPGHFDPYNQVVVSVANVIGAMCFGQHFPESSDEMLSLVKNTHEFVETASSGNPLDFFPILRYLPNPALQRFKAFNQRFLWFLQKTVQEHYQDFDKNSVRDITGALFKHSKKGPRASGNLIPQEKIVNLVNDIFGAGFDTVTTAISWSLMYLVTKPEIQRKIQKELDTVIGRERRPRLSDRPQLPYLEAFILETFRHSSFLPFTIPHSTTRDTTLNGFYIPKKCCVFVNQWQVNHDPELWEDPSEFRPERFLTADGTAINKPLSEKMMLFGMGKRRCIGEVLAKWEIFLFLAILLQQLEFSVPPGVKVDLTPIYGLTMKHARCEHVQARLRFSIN

Cytochrome P450 2C9 = Cytochrome P450 2C9 (Homo sapiens, UniProt P11712); experiment: Inhibition of human CYP2C9 expressed in bactosome; type: ADME
Cytochrome P450 2C19 = Cytochrome P450 2C19 (Homo sapiens, UniProt P33261); experiment: Inhibition of human CYP2C19 expressed in bactosome; type: ADME
Cytochrome P450 2D6 = Cytochrome P450 2D6 (Homo sapiens, UniProt P10635); experiment: Inhibition of human CYP2D6 expressed in bactosome; type: ADME
Cytochrome P450 3A4 [3] = target: T3, Cytochrome P450 3A4 (Homo sapiens, UniProt P08684); experiment: Inhibition of human CYP3A4 expressed in bactosome using DBOMF as substrate; type: ADME
Cytochrome P450 3A4 [4] = target: T3, Cytochrome P450 3A4; experiment: Inhibition of human CYP3A4 expressed in bactosome using 7BQ as substrate; type: ADME
[5] = Intrinsic clearance in human liver microsomes assessed per mg of protein; type: ADME; details: read-out: CLH
[6] = Intrinsic clearance in rat liver microsomes assessed per mg of protein; type: ADME; details: read-out: CLH
[7] = Fraction absorbed in portal vein-cannulated rat; type: ADME, organism-based; details: in vivo
[8] = Volume of distribution at steady state in portal vein-cannulated rat; type: ADME, organism-based; details: in vivo, read-out: Vdss
[9] = Blood clearance in portal vein-cannulated rat; type: ADME, organism-based; details: whole blood
[10] = Half life in portal vein-cannulated rat; type: ADME, organism-based; details: in vivo
[11] = Hepatic extraction ratio in portal vein-cannulated rat; type: ADME, organism-based; details: in vivo, read-out: ERH
[12] = Bioavailability in portal vein-cannulated rat; type: ADME, organism-based; details: in vivo
[13] = Fraction unbound in portal vein-cannulated rat blood; type: ADME, tissue-based
[14] = Fraction unbound in portal vein-cannulated rat brain; type: ADME, tissue-based

T3 sequence (P08684 whole entry): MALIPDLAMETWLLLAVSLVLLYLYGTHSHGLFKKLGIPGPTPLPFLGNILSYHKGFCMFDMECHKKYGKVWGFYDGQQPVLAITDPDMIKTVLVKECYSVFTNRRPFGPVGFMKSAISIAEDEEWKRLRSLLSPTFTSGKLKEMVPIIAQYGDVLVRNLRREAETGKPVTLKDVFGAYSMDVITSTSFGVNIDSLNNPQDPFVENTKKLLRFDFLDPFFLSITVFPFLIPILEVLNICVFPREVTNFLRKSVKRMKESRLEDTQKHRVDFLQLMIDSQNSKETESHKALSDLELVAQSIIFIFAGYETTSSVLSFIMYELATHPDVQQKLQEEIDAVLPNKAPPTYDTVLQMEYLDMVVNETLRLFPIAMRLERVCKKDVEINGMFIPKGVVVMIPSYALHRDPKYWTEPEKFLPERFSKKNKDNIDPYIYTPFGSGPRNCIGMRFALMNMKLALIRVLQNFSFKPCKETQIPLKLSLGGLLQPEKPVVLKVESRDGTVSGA
Chain of Cytochrome P450 2C19 (P33261 whole entry): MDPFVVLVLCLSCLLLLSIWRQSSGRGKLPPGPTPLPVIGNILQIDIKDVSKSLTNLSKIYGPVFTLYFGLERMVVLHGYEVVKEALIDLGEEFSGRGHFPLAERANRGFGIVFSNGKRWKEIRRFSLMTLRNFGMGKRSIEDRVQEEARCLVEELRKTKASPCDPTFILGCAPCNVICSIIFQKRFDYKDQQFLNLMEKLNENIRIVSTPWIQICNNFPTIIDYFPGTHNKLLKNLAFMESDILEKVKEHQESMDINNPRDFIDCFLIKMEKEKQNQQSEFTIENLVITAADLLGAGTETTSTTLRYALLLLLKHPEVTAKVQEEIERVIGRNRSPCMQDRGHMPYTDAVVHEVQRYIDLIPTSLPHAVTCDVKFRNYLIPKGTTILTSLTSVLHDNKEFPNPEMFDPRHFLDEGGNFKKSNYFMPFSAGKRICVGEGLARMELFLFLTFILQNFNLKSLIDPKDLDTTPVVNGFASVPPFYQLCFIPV
Chain of Voltage-gated inwardly rectifying potassium channel KCNH2 (Q12809 whole entry): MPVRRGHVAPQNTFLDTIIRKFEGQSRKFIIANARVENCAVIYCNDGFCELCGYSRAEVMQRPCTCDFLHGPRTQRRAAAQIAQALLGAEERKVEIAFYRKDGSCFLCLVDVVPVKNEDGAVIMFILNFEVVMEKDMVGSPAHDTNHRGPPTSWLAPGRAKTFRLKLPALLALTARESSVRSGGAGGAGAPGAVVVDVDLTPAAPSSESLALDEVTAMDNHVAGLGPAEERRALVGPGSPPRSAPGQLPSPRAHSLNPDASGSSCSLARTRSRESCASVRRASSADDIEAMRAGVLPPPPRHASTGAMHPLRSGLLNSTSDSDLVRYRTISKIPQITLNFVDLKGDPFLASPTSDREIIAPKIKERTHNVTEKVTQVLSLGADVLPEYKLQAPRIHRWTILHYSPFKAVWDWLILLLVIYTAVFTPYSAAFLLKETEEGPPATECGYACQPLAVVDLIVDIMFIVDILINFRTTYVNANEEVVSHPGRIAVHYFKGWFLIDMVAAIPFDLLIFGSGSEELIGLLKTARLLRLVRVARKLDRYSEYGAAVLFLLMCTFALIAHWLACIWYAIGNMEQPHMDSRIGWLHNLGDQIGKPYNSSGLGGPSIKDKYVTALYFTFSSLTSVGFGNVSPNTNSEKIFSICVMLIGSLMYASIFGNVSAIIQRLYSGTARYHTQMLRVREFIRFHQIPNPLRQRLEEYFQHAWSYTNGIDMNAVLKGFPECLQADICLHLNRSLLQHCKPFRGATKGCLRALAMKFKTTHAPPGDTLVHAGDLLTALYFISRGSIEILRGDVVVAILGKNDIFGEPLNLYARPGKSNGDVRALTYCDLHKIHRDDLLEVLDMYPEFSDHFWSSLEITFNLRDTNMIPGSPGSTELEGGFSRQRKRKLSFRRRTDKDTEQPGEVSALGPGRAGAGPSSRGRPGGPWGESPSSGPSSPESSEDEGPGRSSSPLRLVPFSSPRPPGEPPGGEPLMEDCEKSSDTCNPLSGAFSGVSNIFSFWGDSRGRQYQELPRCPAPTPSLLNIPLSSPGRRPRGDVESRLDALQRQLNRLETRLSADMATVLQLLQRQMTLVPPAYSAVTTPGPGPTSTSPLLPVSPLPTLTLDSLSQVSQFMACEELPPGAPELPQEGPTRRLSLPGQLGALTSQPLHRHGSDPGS
Chain of Cytochrome P450 2C9 (P11712 whole entry): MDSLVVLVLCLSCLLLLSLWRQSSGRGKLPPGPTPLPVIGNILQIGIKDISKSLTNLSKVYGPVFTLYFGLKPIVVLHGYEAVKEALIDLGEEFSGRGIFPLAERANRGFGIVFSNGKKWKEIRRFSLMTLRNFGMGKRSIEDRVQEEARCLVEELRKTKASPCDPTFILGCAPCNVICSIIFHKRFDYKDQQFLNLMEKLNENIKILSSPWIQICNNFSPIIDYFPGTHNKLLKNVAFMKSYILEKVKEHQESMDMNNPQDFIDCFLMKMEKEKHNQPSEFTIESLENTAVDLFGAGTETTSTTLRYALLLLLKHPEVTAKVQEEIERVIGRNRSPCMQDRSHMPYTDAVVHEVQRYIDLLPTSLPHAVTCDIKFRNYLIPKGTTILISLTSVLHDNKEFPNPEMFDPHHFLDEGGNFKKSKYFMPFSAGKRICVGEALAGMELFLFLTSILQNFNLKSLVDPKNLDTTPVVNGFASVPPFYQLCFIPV
Chain of Cytochrome P450 2D6 (P10635 whole entry): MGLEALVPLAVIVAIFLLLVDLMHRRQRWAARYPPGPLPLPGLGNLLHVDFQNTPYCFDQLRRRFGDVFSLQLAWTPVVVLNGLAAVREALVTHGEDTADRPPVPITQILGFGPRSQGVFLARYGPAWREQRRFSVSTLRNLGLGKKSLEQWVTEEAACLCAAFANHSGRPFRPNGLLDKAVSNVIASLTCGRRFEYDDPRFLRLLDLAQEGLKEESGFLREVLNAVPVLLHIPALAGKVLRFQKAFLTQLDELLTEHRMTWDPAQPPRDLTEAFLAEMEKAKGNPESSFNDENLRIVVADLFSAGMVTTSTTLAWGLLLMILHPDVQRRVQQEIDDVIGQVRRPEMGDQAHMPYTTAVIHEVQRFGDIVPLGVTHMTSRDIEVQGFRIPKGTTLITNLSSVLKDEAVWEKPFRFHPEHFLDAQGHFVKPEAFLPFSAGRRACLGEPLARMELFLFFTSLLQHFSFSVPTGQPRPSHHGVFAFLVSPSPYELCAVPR
Chain of D(3) dopamine receptor (P19020 whole entry): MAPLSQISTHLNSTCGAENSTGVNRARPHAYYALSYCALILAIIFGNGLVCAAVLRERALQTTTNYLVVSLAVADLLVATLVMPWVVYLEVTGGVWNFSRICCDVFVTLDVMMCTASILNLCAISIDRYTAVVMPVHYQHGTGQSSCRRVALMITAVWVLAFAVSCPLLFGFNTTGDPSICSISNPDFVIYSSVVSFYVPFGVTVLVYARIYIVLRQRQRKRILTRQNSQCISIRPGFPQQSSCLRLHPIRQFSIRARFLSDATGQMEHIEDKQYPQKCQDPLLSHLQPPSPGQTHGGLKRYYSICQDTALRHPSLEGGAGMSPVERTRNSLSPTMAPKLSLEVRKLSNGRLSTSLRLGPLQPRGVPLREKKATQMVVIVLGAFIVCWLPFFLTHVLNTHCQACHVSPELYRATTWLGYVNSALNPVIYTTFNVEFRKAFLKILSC

## Cc1ncoc1-c1nnc(SCCCN2CCOC(c3ccc(F)cc3)C2)n1C (stereo in doubt; 7)
D(3) dopamine receptor
  Ki: 0.251 µM
[1]
  Ki: 3.16 µM
[2]
  Ki: 3.16 µM
Cytochrome P450 1A2
  IC50: > 30 µM
Cytochrome P450 2C9
  IC50: > 30 µM
Cytochrome P450 2C19
  IC50: > 30 µM
Cytochrome P450 2D6
  IC50: > 30 µM
Cytochrome P450 3A4 [3]
  IC50: > 30 µM
Cytochrome P450 3A4 [4]
  IC50: > 30 µM
[5]
  microsomal CLint: 21.7 µL/min/mg
[6]
  microsomal CLint: < 9 µL/min/mg
[7]
  Fa: 100%
[8]
  Vd: 2.61 L/kg
[9]
  clearance: 40 mL/min/kg
[10]
  half-life: 48 min
[11]
  hepatic extraction ratio: 0.1
[12]
  bioavailability: 100%
[13]
  fraction unbound: 0.17
[14]
  fraction unbound: > 0.5
